Test results: US7915293B2, “Ubiquitin ligase inhibitors” (Rigel Pharmaceuticals, Inc., priority 2003, dated 2011)

Experiments:
Parameters in all cases: key: “+” indicates that the compound exibits inhibitory activity; “−” indicates that low or no inhibitory activity was observed
A549 cells = assay: Cell proliferation assay, photographic image analysis of proliferation, apoptosis and death (PAD assay), A549; assay type: cell-based; settings: 6 concentrations tested
Experimental: (§1) A549 (ATCC# CCL-185), HeLa (ATCC# CCL-2), HCT116 (ATCC# CCL-247), and H1299 (ATCC# CRL-5803) cells were maintained in T175 flasks following the ATCC recommended media and handling procedures. Flasks reaching approximately 70% confluency were trypsinized and resuspended in RPMI media (Cell-Gro catalog number 10-040-CM) modified to contain 5% FBS, 100 ug/mlPen/Strep (Cell-Gro catalog number 30-002-CL), and 0.3 mg/ml L-Glutamine (Cell-Gro catalog number 25-003-CL). A 20,000 cells/ml solution was made for plating. Cells were plated in black Packard 96 well plates by placing 100 μl per well (2,000 cells per well).
(§2) Compounds and additional media were added 24 hours after cell plating. A compound master plate was created with concentrations 500 times greater than the final concentration added to the cells. All compound testing was done in duplicate using 6.3 fold dilutions starting with 10 mM. All outside wells (and 4 internal wells) were DMSO controls. Taxol and at least one additional control were run on all plates. Three microliters of the compound master plate were added to deep well blocks containing 750 μl of RPMI media. One hundred microliters were transferred from the compound/media deep well blocks to the plated cells resulting in a 500 fold dilution of the compounds. Cells were grown at 37° C., 5% CO2 for 48 hours.
(§3) Cells to be analyzed by photography were fixed and stained. One hundred microliters of media were removed and 100 μl of 9.3% […] was added to each well. Plates were left on the benchtop for 45 minutes. A staining solution containing 1.55 μl of 1 mg/ml DAPI added to 18.75 ml PBS was warmed for 15 minutes at 37° C. The cells were aspirated prior to washing with 100 μl of PBS. Seventy microliters of PBS were aspirated and 170 μl of the DAPI solution were added to each well of fixed cells. Plates were left at room temperature for one hour then aspirated and washed twice with 100 μl of PBS. The stained cells were left at 4° C. for a minimum of 16 hours before photographic analysis with Array Scan II (Cellomics). Analysis of the photographic images to determine numbers of live cells (proliferation), apoptotic cells and dead cells, were according to the methods described in U.S. Provisional Patent Application Ser. No. 60/406,714, which incorporated herein in its entirety.

HeLa cells = assay: Cell proliferation assay, photographic image analysis of proliferation, apoptosis and death (PAD assay), HeLa; assay type: cell-based; settings: 6 concentrations tested
Experimental: as §1, §2, §3

[1] = target: E3 (His-APC11/APC2-"APC") (Homo sapiens, UniProt Q9NYG5+Q9UJX6); assay: Plate-based E3 ligase assay (APC FLAG), auto-ubiquitination; assay type: biochemical; settings: 8 concentrations tested
E3 (His-APC11/APC2-"APC"), sequence (Q9NYG5 whole entry): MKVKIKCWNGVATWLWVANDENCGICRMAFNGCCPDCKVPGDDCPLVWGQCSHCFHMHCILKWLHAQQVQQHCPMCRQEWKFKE
E3 (His-APC11/APC2-"APC"), sequence (Q9UJX6 whole entry): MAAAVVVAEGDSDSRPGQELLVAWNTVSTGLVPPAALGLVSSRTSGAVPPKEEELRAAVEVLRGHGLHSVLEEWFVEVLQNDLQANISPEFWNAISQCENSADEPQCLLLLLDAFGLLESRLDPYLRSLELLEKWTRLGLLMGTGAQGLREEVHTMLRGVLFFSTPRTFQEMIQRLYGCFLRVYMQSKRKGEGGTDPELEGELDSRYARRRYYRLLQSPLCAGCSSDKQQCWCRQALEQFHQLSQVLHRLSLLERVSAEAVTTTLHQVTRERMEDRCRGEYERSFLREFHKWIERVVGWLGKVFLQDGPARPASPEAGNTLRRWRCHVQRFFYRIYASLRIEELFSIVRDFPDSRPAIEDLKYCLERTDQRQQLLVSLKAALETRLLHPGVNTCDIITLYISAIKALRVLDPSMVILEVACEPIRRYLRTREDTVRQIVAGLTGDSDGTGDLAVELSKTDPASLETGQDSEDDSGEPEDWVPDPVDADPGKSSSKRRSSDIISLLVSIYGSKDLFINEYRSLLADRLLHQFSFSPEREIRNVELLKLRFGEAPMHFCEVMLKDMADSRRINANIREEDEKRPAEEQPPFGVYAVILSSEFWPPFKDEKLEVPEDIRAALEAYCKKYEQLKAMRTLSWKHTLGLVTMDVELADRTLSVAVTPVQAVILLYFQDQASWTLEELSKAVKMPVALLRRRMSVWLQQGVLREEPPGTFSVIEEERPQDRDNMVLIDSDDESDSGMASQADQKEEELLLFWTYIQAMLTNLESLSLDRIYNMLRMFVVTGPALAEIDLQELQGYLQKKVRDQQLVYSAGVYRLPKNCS
Method in brief: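 His-APC11/APC2 auto-ubiquitination was run in casein-blocked nickel plates for 1 h at room temperature, with E1 at 5 ng/well, UbcH5c at 20 ng/well and APC at 100 ng/well. Buffer was 62.5 mM Tris pH 7.6, 3 mM MgCl2, 1 mM DTT, 2.5 mM ATP and Flag-ubiquitin at 100 ng/well. Detection used anti-Flag/HRP chemiluminescence, and IC50 was typically from 6 or 8 concentrations versus a DMSO control.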

Compound | PAD Assay, A549 6 pt (A549 cells) | PAD Assay, HELA 6 pt (HeLa cells) | APC Flag 8 pt [1]
O=S(=O)(c1cccc(Cl)c1)N1CCC(Oc2ccccc2C(F)(F)F)CC1 [Example 300, 1-(3-chlorophenylsulfonyl)-4-(2-(trifluoromethyl)phenoxy)piperidine] | + | + | 
O=[N+]([O-])c1ccc(Oc2ccc(S(=O)(=O)Nc3c(F)cccc3F)cc2Cl)c(C(F)(F)F)c1 [Example 268, 3-chloro-N-(2,6-difluorophenyl)-4-[4-nitro-2-(trifluoromethyl)phenoxy]benzene-sulfonamide] | + | + | +
O=S(=O)(Nc1ccc(Oc2cc(C(F)(F)F)ccn2)cc1)c1cccc(C(F)(F)F)c1 [Example 298, 3-(trifluoromethyl)-N-(4-(4-(trifluoromethyl)pyridin-2-yloxy)phenyl)benzenesulfonamide] | + | + | 
N=C(NS(=O)(=O)c1cc(Cl)c(Oc2ccc([N+](=O)[O-])cc2)c(Cl)c1)c1cccnc1 [Example 60, N-{[3,5-dichloro-4-(4-nitrophenoxy)phenyl]sulfonyl}pyridine-3-carboximidamide] | + |  | −
Cc1ccc(C(F)(F)F)cc1NS(=O)(=O)c1cc(Cl)c(Oc2ccc([N+](=O)[O-])cc2Cl)c(Cl)c1 [Example 229, 3,5-dichloro-4-(2-chloro-4-nitrophenoxy)-N-[2-methyl-5-(trifluoromethyl)phenyl] benzenesulfonamide] | + | + | +
O=S(=O)(Nc1cccc2cnccc12)c1cc(Cl)c(Oc2ccc(Cl)cc2Cl)c(Cl)c1 [Example 246, 3,5-dichloro-4-(2,4-dichlorophenoxy)-N-isoquinolin-5-ylbenzenesulfonamide] | + | + | +
O=S(=O)(Nc1ccc(Oc2ncc(C(F)(F)F)cc2Cl)cc1)c1cccc(Cl)c1 [Compound 294, 3-chloro-N-(4-(3-chloro-5-(trifluoromethyl)pyridyn-2-yloxy)phenyl)benzenesulfonamide] | + | + | 
O=[N+]([O-])c1ccc(Oc2c(Cl)cc(S(=O)(=O)Nc3c(F)cccc3F)cc2Cl)c(Cl)c1 [Example 238, 3,5-dichloro-4-(2-chloro-4-nitrophenoxy)-N-(2,6-difluorophenyl)benzenesulfonamide] | + | + | +
N=C(NS(=O)(=O)c1cc(Cl)c(Oc2ccc([N+](=O)[O-])cc2Cl)c(Cl)c1)c1ccccn1 [Example 27, N-{[3,5-dichloro-4-(2-chloro-4-nitrophenoxy)phenyl]sulfonyl}pyridine-2-carboximidamide] | − |  | −
O=[N+]([O-])c1ccc(Oc2ccc(S(=O)(=O)Nc3cc(Cl)ccc3Cl)cc2Cl)c(C(F)(F)F)c1 [Example 261, 3-chloro-N-(2,5-dichlorophenyl)-4-(4-nitro-2-(trifluoromethyl)phenoxy]benzene-sulfonamide] | + | + | +
O=S(=O)(Nc1ccc(Oc2ncccn2)c(Cl)c1)c1cccc(Cl)c1 [Compound 292, 3-chloro-N-[3-chloro-4-(pyrimidin-2-yloxy)phenyl]benzenesulfonamide] | + | − | 
O=S(=O)(Nc1ccc(Oc2cc(C(F)(F)F)ccn2)cc1)c1cccc(Cl)c1 [Example 297, 3-chloro-N-(4-(4-(trifluoromethyl)pyridin-2-yloxy)phenyl)benzenesulfonamide] | + | − | 
N=C(NS(=O)(=O)c1cc(Cl)c(Oc2ccc([N+](=O)[O-])cc2Cl)c(Cl)c1)c1cccnc1 [Example 26, N-{[3,5-dichloro-4-(2-chloro-4-nitrophenoxy)phenyl]sulfonyl}pyridine-3-carboximidamide] | + |  | −
O=S(=O)(Nc1ccc(Oc2cc(C(F)(F)F)ccn2)cc1)c1ccccc1C(F)(F)F [Example 299, 2-(trifluoromethyl)-N-(4-(4-(trifluoromethyl)pyridin-2-yloxy)phenyl)benzenesulfonamide] | + | − | 
N=C(NS(=O)(=O)c1cc(Cl)c(Oc2ccc([N+](=O)[O-])cc2Cl)c(Cl)c1)c1ccncc1 [Example 29, N-{[3,5-dichloro-4-(2-chloro-4-nitrophenoxy)phenyl]sulfonyl}pyridine-4-carboximidamide] | + |  | +
O=S(=O)(Nc1ccc(Oc2ncc(C(F)(F)F)cc2Cl)cc1)c1cccc(C(F)(F)F)c1 [Example 295, N-(4-(3-chloro-5-(trifluoromethyl)pyridin-2-yloxy)phenyl)-3-(trifluoromethyl)benzenesulfonamide] | + | + | 
CC1CN(S(=O)(=O)c2cc(Cl)c(Oc3ccc([N+](=O)[O-])cc3Cl)c(Cl)c2)CC(C)O1 (stereo not drawn) [Example 18, 4-{[3,5-dichloro-4-(2-chloro-4-nitrophenoxy)phenyl]sulfonyl}-2,6-dimethylmorpholine] | − |  | −
O=S(=O)(Nc1ccc(F)cc1C(F)(F)F)c1ccc(Oc2ncc(C(F)(F)F)cc2Cl)cc1 [Example 271, 4-{[3-chloro-5-(trifluoromethyl)pyridin-2-yl]oxy}-N-[4-fluoro-2-(trifluoromethyl)phenyl]benzenesulfonamide] | + | + | 
N=C(NS(=O)(=O)c1cc(Cl)c(Oc2ccc([N+](=O)[O-])cc2Cl)c(Cl)c1)c1ccc(Cl)cc1 [Example 25, 4-chloro-N-{[3,5-dichloro-4-(2-chloro-4-nitrophenoxy)phenyl]sulfonyl}benzene-carboximidamide] | − |  | +
O=[N+]([O-])c1ccc(Oc2c(Cl)cc(S(=O)(=O)Nc3ccc(F)cc3F)cc2Cl)c(Cl)c1 [Example 17, 3,5-dichloro-4-(2-chloro-4-nitrophenoxy)-N-(2,4-difluorophenyl)benzene-sulfonamide] | − |  | +
O=[N+]([O-])c1ccc(Oc2c(Cl)cc(S(=O)(=O)N3CCCCC3)cc2Cl)c(Cl)c1 [Example 21, 1-{[3,5-dichloro-4-(2-chloro-4-nitrophenoxy)phenyl]sulfonyl}piperidine] | − |  | −
O=S(=O)(c1ccccc1C(F)(F)F)N1CCC(Oc2ccccc2C(F)(F)F)CC1 [Example 302, 4-(2-(trifluoromethyl)phenoxy)-1-(2-(trifluoromethyl)phenylsulfonyl)piperidine] | + | + | 
N=C(CCl)NS(=O)(=O)c1cc(Cl)c(Oc2ccc([N+](=O)[O-])cc2)c(Cl)c1 [Example 31, 2-chloro-N-{[3,5-dichloro-4-(4-nitrophenoxy)phenyl]sulfonyl}ethanimidamide] | + |  | −
O=C(Nc1ccccc1C(F)(F)F)N1CCC(Oc2ccccc2C(F)(F)F)CC1 [Example 306, 4-(2-(trifluoromethyl)phenoxy)-N-(2-(trifluoromethyl)phenyl)piperidine-1-carboxamide] | − | − | 
O=C(Nc1cccc(Cl)c1)N1CCC(Oc2ccccc2C(F)(F)F)CC1 [Compound 305, N-(3-chlorophenyl)-4-(2-(trifluoromethyl)phenoxy)piperidine-1-carboxamide] | + | + | 
O=S(=O)(c1cccc(C(F)(F)F)c1)N1CCC(Oc2ccccc2C(F)(F)F)CC1 [Example 301, 4-(2-(trifluoromethyl)phenoxy)-1-(3-(trifluoromethyl)phenylsulfonyl)piperidine] | + | + | 
